Experimental data published in the supplement of paper PMC10307832.

Assays:
Test in all cases: relative viability (nuclei count vs DMSO), 5 days (fraction); higher = more cells survive
[1] = tested on: NCI-H2023
In short: (§1)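 Relative viability divides the nuclei count in treated wells by that in vehicle wells. Lung cancer cell lines were seeded in 1536-well plates, dosed by pin tool the next day, and fixed and stained after 5 days in one step with final 0.05% Triton X-100, 1% formaldehyde and 1 ug/ml Hoechst. Dosing was a single drug or a fixed anchor-drug dose plus five library-drug doses (not always all listed) in √10 steps, and values are medians of duplicate plates imaged at 4×.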

[2] = tested on: HCC-78
In short: as §1

[3] = tested on: ChaGo-K-1
In short: as §1

[4] = tested on: LOU-NH91
In short: as §1

[5] = tested on: NCI-H838
In short: as §1

[6] = tested on: HCC-366
In short: as §1

[7] = tested on: NCI-H1734
In short: as §1

[8] = tested on: HOP-62
In short: as §1

[9] = tested on: NCI-H596
In short: as §1

[10] = tested on: NCI-H650
In short: as §1

[11] = tested on: A-427
In short: as §1

[12] = tested on: COR-L23
In short: as §1

[13] = tested on: NCI-H1650
In short: as §1

[14] = tested on: NCI-H1395
In short: as §1

[15] = tested on: NCI-H2087
In short: as §1

[16] = tested on: EKVX
In short: as §1

[17] = tested on: NCI-H1915
In short: as §1

[18] = tested on: SK-MES-1
In short: as §1

[19] = tested on: NCI-H3122
In short: as §1

[20] = tested on: NCI-H358
In short: as §1

[21] = tested on: NCI-H661
In short: as §1

[22] = tested on: EPLC-272H
In short: as §1

O=c1[nH]c2ccccc2n1C1CCN(CCCC(c2ccc(F)cc2)c2ccc(F)cc2)CC1 [Pimozide] + COc1cc2c(Oc3ccc(NC(=O)C4(C(=O)Nc5ccc(F)cc5)CC4)cc3F)ccnc2cc1OCCCN1CCOCC1 [Foretinib] (partner 0.25 µM)
relative viability ([1]; first compound 0.08 µM): 0.687 | relative viability ([1]; first compound 0.253 µM): 0.916 | relative viability ([1]; first compound 0.8 µM): 0.91 | relative viability ([1]; first compound 2.53 µM): 0.705 | relative viability ([1]; first compound 8 µM): 0.64 | relative viability ([2]; first compound 0.08 µM): 0.536 | relative viability ([2]; first compound 0.8 µM): 0.482 | relative viability ([2]; first compound 2.53 µM): 0.564 | relative viability ([2]; first compound 8 µM): 0.573 | relative viability ([3]; first compound 0.08 µM): 0.937 | relative viability ([3]; first compound 0.253 µM): 0.899 | relative viability ([3]; first compound 0.8 µM): 0.879 | relative viability ([3]; first compound 2.53 µM): 0.811 | relative viability ([3]; first compound 8 µM): 0.908 | relative viability ([4]; first compound 0.08 µM): 0.586 | relative viability ([4]; first compound 0.253 µM): 0.743 | relative viability ([4]; first compound 0.8 µM): 0.879 | relative viability ([4]; first compound 2.53 µM): 0.944 | relative viability ([4]; first compound 8 µM): 0.888 | relative viability ([5]; first compound 0.08 µM): 1.02 | relative viability ([5]; first compound 0.253 µM): 1.11 | relative viability ([5]; first compound 0.8 µM): 1.08 | relative viability ([5]; first compound 2.53 µM): 1.03 | relative viability ([5]; first compound 8 µM): 1.04 | relative viability ([6]; first compound 0.08 µM): 0.862 | relative viability ([6]; first compound 0.253 µM): 0.952 | relative viability ([6]; first compound 0.8 µM): 0.866 | relative viability ([6]; first compound 2.53 µM): 0.925 | relative viability ([6]; first compound 8 µM): 0.859 | relative viability ([7]; first compound 0.08 µM): 0.77 | relative viability ([7]; first compound 0.253 µM): 0.767 | relative viability ([7]; first compound 2.53 µM): 0.883 | relative viability ([7]; first compound 8 µM): 0.834 | relative viability ([8]; first compound 0.08 µM): 1.05 | relative viability ([8]; first compound 0.253 µM): 1.14 | relative viability ([8]; first compound 2.53 µM): 1.04 | relative viability ([8]; first compound 8 µM): 1.03 | relative viability ([9]; first compound 0.08 µM): 0.883 | relative viability ([9]; first compound 0.253 µM): 0.902 | relative viability ([9]; first compound 0.8 µM): 1.02 | relative viability ([9]; first compound 2.53 µM): 0.78 | relative viability ([9]; first compound 8 µM): 0.821 | relative viability ([10]; first compound 0.08 µM): 1.07 | relative viability ([10]; first compound 0.253 µM): 1.02 | relative viability ([10]; first compound 0.8 µM): 1 | relative viability ([10]; first compound 2.53 µM): 1.04 | relative viability ([10]; first compound 8 µM): 1.04 | relative viability ([11]; first compound 0.08 µM): 1.02 | relative viability ([11]; first compound 0.253 µM): 1.04 | relative viability ([11]; first compound 0.8 µM): 0.976 | relative viability ([11]; first compound 2.53 µM): 0.669 | relative viability ([11]; first compound 8 µM): 0.966 | relative viability ([12]; first compound 0.08 µM): 1.01 | relative viability ([12]; first compound 0.253 µM): 0.951 | relative viability ([12]; first compound 0.8 µM): 0.909 | relative viability ([12]; first compound 2.53 µM): 1.05 | relative viability ([12]; first compound 8 µM): 0.905 | relative viability ([13]; first compound 0.08 µM): 0.72 | relative viability ([13]; first compound 0.253 µM): 1.23 | relative viability ([13]; first compound 0.8 µM): 0.959 | relative viability ([13]; first compound 2.53 µM): 1.17 | relative viability ([13]; first compound 8 µM): 0.933 | relative viability ([14]; first compound 0.08 µM): 1.02 | relative viability ([14]; first compound 0.253 µM): 0.975 | relative viability ([14]; first compound 0.8 µM): 0.953 | relative viability ([14]; first compound 2.53 µM): 1.03 | relative viability ([14]; first compound 8 µM): 0.91 | relative viability ([15]; first compound 0.08 µM): 1.21 | relative viability ([15]; first compound 0.253 µM): 0.984 | relative viability ([15]; first compound 2.53 µM): 1.17 | relative viability ([15]; first compound 8 µM): 1.09 | relative viability ([16]; first compound 0.08 µM): 0.196 | relative viability ([16]; first compound 0.253 µM): 0.827 | relative viability ([16]; first compound 0.8 µM): 0.764 | relative viability ([16]; first compound 2.53 µM): 0.747 | relative viability ([16]; first compound 8 µM): 0.908 | relative viability ([17]; first compound 0.08 µM): 1.05 | relative viability ([17]; first compound 0.253 µM): 1.01 | relative viability ([17]; first compound 0.8 µM): 0.855 | relative viability ([17]; first compound 2.53 µM): 0.974 | relative viability ([17]; first compound 8 µM): 1.05 | relative viability ([18]; first compound 0.08 µM): 0.614 | relative viability ([18]; first compound 0.253 µM): 0.955 | relative viability ([18]; first compound 0.8 µM): 1.06 | relative viability ([18]; first compound 2.53 µM): 1.06 | relative viability ([18]; first compound 8 µM): 0.94 | relative viability ([19]; first compound 0.08 µM): 0.911 | relative viability ([19]; first compound 0.253 µM): 1 | relative viability ([19]; first compound 0.8 µM): 0.91 | relative viability ([19]; first compound 2.53 µM): 0.968 | relative viability ([19]; first compound 8 µM): 0.923 | relative viability ([20]; first compound 0.08 µM): 0.671 | relative viability ([20]; first compound 0.253 µM): 0.661 | relative viability ([20]; first compound 0.8 µM): 0.578 | relative viability ([20]; first compound 2.53 µM): 0.562 | relative viability ([20]; first compound 8 µM): 0.695 | relative viability ([21]; first compound 0.08 µM): 1.02 | relative viability ([21]; first compound 0.253 µM): 1.03 | relative viability ([21]; first compound 0.8 µM): 0.929 | relative viability ([21]; first compound 2.53 µM): 0.921 | relative viability ([21]; first compound 8 µM): 0.907 | relative viability ([22]; first compound 0.08 µM): 0.631 | relative viability ([22]; first compound 0.253 µM): 0.667 | relative viability ([22]; first compound 0.8 µM): 0.539 | relative viability ([22]; first compound 2.53 µM): 0.175 | relative viability ([22]; first compound 8 µM): 0.567
